Measurements taken from patent publication US20250367283A1, “MEVALONATE PATHWAY INHIBITOR AS HIGHLY-EFFICIENT VACCINE ADJUVANT” (Tsinghua University, priority 2015, published 2025).

Biological target: HsGGPPS (humanized geranylgeranyl pyrophosphate synthase) (Homo sapiens (Human), UniProt O95749)
Experiment: HsGGPPS enzyme inhibition test
Type: biochemical
Experimental: The inhibitory activities of compounds TH-Z144 and TH-Z145 on GGPPS (geranylgeranyl pyrophosphate synthase) were tested by referring to the expression and purification method for HsGGPPS (humanized geranylgeranyl pyrophosphate synthase) in the reference (Szabo, C. M., et al., Inhibition of Geranylgeranyl Diphosphate Synthase by Bisphosphonates and Diphosphates: A Potential Route to New Bone Antiresorption and Antiparasitic Agents. Journal of Medicinal Chemistry, 2002. 45 (11): p. 2185-2196.) and the method for testing enzyme activity in the reference (Zhang, Y., et al., Lipophilic Bisphosphonates as Dual Farnesyl/Geranylgeranyl Diphosphate Synthase Inhibitors: An X-ray and NMR Investigation. Journal of the American Chemical Society, 2009. 131 (14): p. 5153-5162.) The data of the activity test were as follows: […]

Chain of HsGGPPS (humanized geranylgeranyl pyrophosphate synthase) (O95749 whole entry, looked up): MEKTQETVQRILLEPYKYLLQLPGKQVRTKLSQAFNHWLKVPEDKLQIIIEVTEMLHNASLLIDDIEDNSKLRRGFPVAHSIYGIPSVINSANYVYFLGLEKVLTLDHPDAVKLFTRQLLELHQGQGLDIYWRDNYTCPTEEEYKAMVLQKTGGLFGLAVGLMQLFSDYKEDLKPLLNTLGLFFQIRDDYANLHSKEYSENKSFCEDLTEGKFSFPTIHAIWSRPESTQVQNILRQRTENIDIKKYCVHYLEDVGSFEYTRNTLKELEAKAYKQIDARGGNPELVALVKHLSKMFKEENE

For “(2-(3-(octyloxy)phenyl)ethane-1,1-diyl)bisphosphonic acid [TH-Z145]”, the “IC50 (inhibition of GGPPS)” value was “effectively inhibit the activity of GGPPS” and the IC50 (read-out: IC50 (inhibition of GGPPS)) was 660 nM.
